From ChEMBL document CHEMBL1268977, “Efficient synthesis, spectral analysis and antimicrobial studies of nitrogen and sulfur containing spiro heterocycles from 2,4-diaryl-3-azabicyclo[3.3.1]nonan-9-ones” (2010)
Converted amounts (≈) assume the structure as drawn. The source made the active and inactive calls. The calls are words filed in the database; no cut-off is given here.

Key:
Aspergillus flavus = assay: Antifungal activity against Aspergillus flavus ATCC 525 after 72 to 96 hrs by serial dilution method; assay type: functional
Bacillus subtilis = assay: Antibacterial activity against Bacillus subtilis ATCC 530 after 24 hrs by serial dilution method; assay type: functional; conditions: ATCC 530, 24 h
Cryptococcus neoformans = assay: Antifungal activity against Cryptococcus neoformans ATCC 3235 after 72 to 96 hrs by serial dilution method; assay type: functional
Staphylococcus aureus = assay: Antibacterial activity against Staphylococcus aureus ATCC 25930 after 24 hrs by serial dilution method; assay type: functional; conditions: ATCC 25930, 24 h
Escherichia coli = assay: Antibacterial activity against Escherichia coli ATCC 26032 after 24 hrs by serial dilution method; assay type: functional; conditions: ATCC 26032, 24 h
Aspergillus niger [1] = assay: Antifungal activity against Aspergillus niger ATCC 635 after 72 to 96 hrs by serial dilution method; assay type: functional
Salmonella typhi = assay: Antibacterial activity against Salmonella typhi ATCC 25021 after 24 hrs by serial dilution method; assay type: functional, Salmonella enterica subsp. enterica serovar Typhi; conditions: Salmonella enterica, ATCC 25021, 24 h
Klebsiella pneumoniae = assay: Antibacterial activity against Klebsiella pneumoniae ATCC 16425 after 24 hrs by serial dilution method; assay type: functional; conditions: ATCC 16425, 24 h
Candida albicans = assay: Antifungal activity against Candida albicans ATCC 3430 after 72 to 96 hrs by serial dilution method; assay type: functional
Rhizopus = assay: Antifungal activity against Rhizopus species ATCC 2842 after 72 to 96 hrs by serial dilution method; assay type: functional
Aspergillus niger [2] = assay: Antifungal activity against Aspergillus niger ATCC 635 at 200 ug/ml after 72 to 96 hrs by serial dilution method; assay type: functional, organism-based

SMILES: CCC(=O)NC1=NN(C(=O)CC)C2(S1)C1CCCC2C(c2cccc(F)c2)NC1c1cccc(F)c1 (stereo not given)
- MIC (Aspergillus flavus): 50 mg/L (≈ 97.5 µM)
- MIC (Bacillus subtilis): 6.25 mg/L (≈ 12.2 µM)
- MIC (Cryptococcus neoformans): 25 mg/L (≈ 48.8 µM)
- MIC (Staphylococcus aureus): 100 mg/L (≈ 195 µM)
- MIC (Escherichia coli): 6.25 mg/L (≈ 12.2 µM)
- MIC (Aspergillus niger [1]): 12.5 mg/L (≈ 24.4 µM)
- MIC (Salmonella typhi): 6.25 mg/L (≈ 12.2 µM)
- MIC (Klebsiella pneumoniae): 50 mg/L (≈ 97.5 µM)
- MIC (Candida albicans): 25 mg/L (≈ 48.8 µM)
- MIC (Rhizopus): 25 mg/L (≈ 48.8 µM)

SMILES: CN[C@@H]1[C@H](O[C@H]2[C@H](O[C@H]3[C@H](O)[C@@H](O)[C@H](N=C(N)N)[C@@H](O)[C@@H]3N=C(N)N)O[C@@H](C)[C@]2(O)C=O)O[C@@H](CO)[C@H](O)[C@H]1O [STREPTOMYCIN]
- MIC (Bacillus subtilis): 12.5 mg/L (≈ 21.5 µM)
- MIC (Staphylococcus aureus): 50 mg/L (≈ 86 µM)
- MIC (Escherichia coli): 12.5 mg/L (≈ 21.5 µM)
- MIC (Salmonella typhi): 50 mg/L (≈ 86 µM)
- MIC (Klebsiella pneumoniae): 25 mg/L (≈ 43 µM)

SMILES: CCC(=O)NC1=NN(C(=O)CC)C2(S1)C1CCCC2C(c2ccccc2)N(C(=O)CC)C1c1ccccc1 (stereo not given)
- MIC (Aspergillus flavus): 12.5 mg/L (≈ 23.5 µM)
- MIC (Bacillus subtilis): 50 mg/L (≈ 93.9 µM)
- MIC (Cryptococcus neoformans): 6.25 mg/L (≈ 11.7 µM)
- MIC (Staphylococcus aureus): 12.5 mg/L (≈ 23.5 µM)
- MIC (Escherichia coli): 50 mg/L (≈ 93.9 µM)
- MIC (Aspergillus niger [1]): 50 mg/L (≈ 93.9 µM)
- MIC (Salmonella typhi): 25 mg/L (≈ 46.9 µM)
- MIC (Klebsiella pneumoniae): 50 mg/L (≈ 93.9 µM)
- MIC (Candida albicans): 50 mg/L (≈ 93.9 µM)
- MIC (Rhizopus): 12.5 mg/L (≈ 23.5 µM)

SMILES: CCC(=O)NC1=NN(C(=O)CC)C2(S1)C1CCCC2C(c2ccccc2Cl)NC1c1ccccc1Cl (stereo not given)
- MIC (Aspergillus flavus): 50 mg/L (≈ 91.7 µM)
- MIC (Bacillus subtilis): 12.5 mg/L (≈ 22.9 µM)
- MIC (Cryptococcus neoformans): 50 mg/L (≈ 91.7 µM)
- MIC (Staphylococcus aureus): 50 mg/L (≈ 91.7 µM)
- MIC (Escherichia coli): 50 mg/L (≈ 91.7 µM)
- MIC (Aspergillus niger [1]): 12.5 mg/L (≈ 22.9 µM)
- MIC (Salmonella typhi): 25 mg/L (≈ 45.8 µM)
- MIC (Klebsiella pneumoniae): 25 mg/L (≈ 45.8 µM)
- MIC (Candida albicans): 12.5 mg/L (≈ 22.9 µM)
- MIC (Rhizopus): 100 mg/L (≈ 183 µM)

SMILES: COc1ccc(C2C3CCCC(C(c4ccc(OC)cc4)N2C(C)=O)C32SC(NC(C)=O)=NN2C(C)=O)cc1 (stereo not given)
- MIC (Aspergillus flavus): 12.5 mg/L (≈ 22.7 µM)
- MIC (Bacillus subtilis): 50 mg/L (≈ 90.8 µM)
- MIC (Cryptococcus neoformans): 25 mg/L (≈ 45.4 µM)
- MIC (Staphylococcus aureus): 25 mg/L (≈ 45.4 µM)
- MIC (Escherichia coli): 50 mg/L (≈ 90.8 µM)
- MIC (Salmonella typhi): 50 mg/L (≈ 90.8 µM)
- MIC (Klebsiella pneumoniae): 25 mg/L (≈ 45.4 µM)
- MIC (Candida albicans): 25 mg/L (≈ 45.4 µM)
- MIC (Rhizopus): 100 mg/L (≈ 182 µM)
- inhibition (Aspergillus niger [2]): inactive

SMILES: CCC(=O)NC1=NN(C(=O)CC)C2(S1)C1CCCC2C(c2ccc(Cl)cc2)NC1c1ccc(Cl)cc1 (stereo not given)
- MIC (Aspergillus flavus): 50 mg/L (≈ 91.7 µM)
- MIC (Bacillus subtilis): 12.5 mg/L (≈ 22.9 µM)
- MIC (Cryptococcus neoformans): 25 mg/L (≈ 45.8 µM)
- MIC (Staphylococcus aureus): 200 mg/L (≈ 367 µM)
- MIC (Escherichia coli): 25 mg/L (≈ 45.8 µM)
- MIC (Aspergillus niger [1]): 12.5 mg/L (≈ 22.9 µM)
- MIC (Salmonella typhi): 12.5 mg/L (≈ 22.9 µM)
- MIC (Klebsiella pneumoniae): 100 mg/L (≈ 183 µM)
- MIC (Candida albicans): 12.5 mg/L (≈ 22.9 µM)
- MIC (Rhizopus): 12.5 mg/L (≈ 22.9 µM)

SMILES: CC(=O)N(C1=NN(C(C)=O)C2(S1)C1CCCC2C(c2ccccc2Cl)NC1c1ccccc1Cl)c1ccccc1 (stereo not given)
- MIC (Aspergillus flavus): 100 mg/L (≈ 168 µM)
- MIC (Bacillus subtilis): 12.5 mg/L (≈ 21.1 µM)
- MIC (Cryptococcus neoformans): 50 mg/L (≈ 84.2 µM)
- MIC (Staphylococcus aureus): 25 mg/L (≈ 42.1 µM)
- MIC (Escherichia coli): 50 mg/L (≈ 84.2 µM)
- MIC (Aspergillus niger [1]): 12.5 mg/L (≈ 21.1 µM)
- MIC (Salmonella typhi): 100 mg/L (≈ 168 µM)
- MIC (Klebsiella pneumoniae): 100 mg/L (≈ 168 µM)
- MIC (Candida albicans): 6.25 mg/L (≈ 10.5 µM)
- MIC (Rhizopus): 25 mg/L (≈ 42.1 µM)

SMILES: CC(=O)NC1=NN(C(C)=O)C2(S1)C1CCCC2C(c2ccc(C)cc2)NC1c1ccc(C)cc1 (stereo not given)
- MIC (Aspergillus flavus): 12.5 mg/L (≈ 26.2 µM)
- MIC (Bacillus subtilis): 12.5 mg/L (≈ 26.2 µM)
- MIC (Cryptococcus neoformans): 50 mg/L (≈ 105 µM)
- MIC (Staphylococcus aureus): 25 mg/L (≈ 52.4 µM)
- MIC (Escherichia coli): 100 mg/L (≈ 210 µM)
- MIC (Aspergillus niger [1]): 50 mg/L (≈ 105 µM)
- MIC (Salmonella typhi): 100 mg/L (≈ 210 µM)
- MIC (Klebsiella pneumoniae): 12.5 mg/L (≈ 26.2 µM)
- MIC (Candida albicans): 25 mg/L (≈ 52.4 µM)
- MIC (Rhizopus): 25 mg/L (≈ 52.4 µM)

SMILES: CC(=O)NC1=NN(C(C)=O)C2(S1)C1CCCC2C(c2ccc(F)cc2)NC1c1ccc(F)cc1 (stereo not given)
- MIC (Aspergillus flavus): 6.25 mg/L (≈ 12.9 µM)
- MIC (Bacillus subtilis): 6.25 mg/L (≈ 12.9 µM)
- MIC (Cryptococcus neoformans): 12.5 mg/L (≈ 25.8 µM)
- MIC (Staphylococcus aureus): 50 mg/L (≈ 103 µM)
- MIC (Escherichia coli): 12.5 mg/L (≈ 25.8 µM)
- MIC (Aspergillus niger [1]): 6.25 mg/L (≈ 12.9 µM)
- MIC (Salmonella typhi): 6.25 mg/L (≈ 12.9 µM)
- MIC (Klebsiella pneumoniae): 12.5 mg/L (≈ 25.8 µM)
- MIC (Candida albicans): 6.25 mg/L (≈ 12.9 µM)
- MIC (Rhizopus): 50 mg/L (≈ 103 µM)

SMILES: CCC(=O)NC1=NN(C(=O)CC)C2(S1)C1CCCC2C(c2ccc(C)cc2)NC1c1ccc(C)cc1 (stereo not given)
- MIC (Aspergillus flavus): 200 mg/L (≈ 396 µM)
- MIC (Bacillus subtilis): 100 mg/L (≈ 198 µM)
- MIC (Cryptococcus neoformans): 25 mg/L (≈ 49.5 µM)
- MIC (Staphylococcus aureus): 50 mg/L (≈ 99.1 µM)
- MIC (Escherichia coli): 25 mg/L (≈ 49.5 µM)
- MIC (Aspergillus niger [1]): 100 mg/L (≈ 198 µM)
- MIC (Salmonella typhi): 50 mg/L (≈ 99.1 µM)
- MIC (Klebsiella pneumoniae): 25 mg/L (≈ 49.5 µM)
- MIC (Candida albicans): 25 mg/L (≈ 49.5 µM)
- MIC (Rhizopus): 50 mg/L (≈ 99.1 µM)

SMILES: CCC(=O)N(C1=NN(C(=O)CC)C2(S1)C1CCCC2C(c2ccccc2Cl)NC1c1ccccc1Cl)c1ccccc1 (stereo not given)
- MIC (Aspergillus flavus): 50 mg/L (≈ 80.4 µM)
- MIC (Bacillus subtilis): 50 mg/L (≈ 80.4 µM)
- MIC (Cryptococcus neoformans): 200 mg/L (≈ 322 µM)
- MIC (Staphylococcus aureus): 6.25 mg/L (≈ 10.1 µM)
- MIC (Escherichia coli): 50 mg/L (≈ 80.4 µM)
- MIC (Aspergillus niger [1]): 50 mg/L (≈ 80.4 µM)
- MIC (Salmonella typhi): 25 mg/L (≈ 40.2 µM)
- MIC (Klebsiella pneumoniae): 25 mg/L (≈ 40.2 µM)
- MIC (Candida albicans): 50 mg/L (≈ 80.4 µM)
- MIC (Rhizopus): 100 mg/L (≈ 161 µM)

SMILES: C[C@@H]1[C@H](O)[C@@H](C)/C=C/C=C/C=C/C=C/C=C/C=C/C=C/[C@H](O[C@@H]2O[C@H](C)[C@@H](O)[C@H](N)[C@@H]2O)C[C@@H]2O[C@](O)(C[C@@H](O)C[C@@H](O)[C@H](O)CC[C@@H](O)C[C@@H](O)CC(=O)O[C@H]1C)C[C@H](O)[C@H]2C(=O)O [AMPHOTERICIN B]
- MIC (Aspergillus flavus): 50 mg/L (≈ 54.1 µM)
- MIC (Cryptococcus neoformans): 25 mg/L (≈ 27.1 µM)
- MIC (Aspergillus niger [1]): 50 mg/L (≈ 54.1 µM)
- MIC (Candida albicans): 25 mg/L (≈ 27.1 µM)
- MIC (Rhizopus): 25 mg/L (≈ 27.1 µM)

SMILES: CC(=O)NC1=NN(C(C)=O)C2(S1)C1CCCC2C(c2cccc(F)c2)NC1c1cccc(F)c1 (stereo not given)
- MIC (Aspergillus flavus): 6.25 mg/L (≈ 12.9 µM)
- MIC (Bacillus subtilis): 25 mg/L (≈ 51.6 µM)
- MIC (Cryptococcus neoformans): 25 mg/L (≈ 51.6 µM)
- MIC (Staphylococcus aureus): 50 mg/L (≈ 103 µM)
- MIC (Escherichia coli): 6.25 mg/L (≈ 12.9 µM)
- MIC (Aspergillus niger [1]): 25 mg/L (≈ 51.6 µM)
- MIC (Salmonella typhi): 6.25 mg/L (≈ 12.9 µM)
- MIC (Klebsiella pneumoniae): 6.25 mg/L (≈ 12.9 µM)
- MIC (Candida albicans): 25 mg/L (≈ 51.6 µM)
- MIC (Rhizopus): 12.5 mg/L (≈ 25.8 µM)

SMILES: CC(=O)NC1=NN(C(C)=O)C2(S1)C1CCCC2C(c2ccccc2)N(C(C)=O)C1c1ccccc1 (stereo not given)
- MIC (Aspergillus flavus): 100 mg/L (≈ 204 µM)
- MIC (Bacillus subtilis): 100 mg/L (≈ 204 µM)
- MIC (Cryptococcus neoformans): 50 mg/L (≈ 102 µM)
- MIC (Staphylococcus aureus): 12.5 mg/L (≈ 25.5 µM)
- MIC (Escherichia coli): 50 mg/L (≈ 102 µM)
- MIC (Aspergillus niger [1]): 25 mg/L (≈ 51 µM)
- MIC (Salmonella typhi): 25 mg/L (≈ 51 µM)
- MIC (Klebsiella pneumoniae): 100 mg/L (≈ 204 µM)
- MIC (Candida albicans): 100 mg/L (≈ 204 µM)
- MIC (Rhizopus): 50 mg/L (≈ 102 µM)

SMILES: CCC(=O)NC1=NN(C(=O)CC)C2(S1)C1CCCC2C(c2ccc(F)cc2)NC1c1ccc(F)cc1 (stereo not given)
- MIC (Aspergillus flavus): 6.25 mg/L (≈ 12.2 µM)
- MIC (Bacillus subtilis): 6.25 mg/L (≈ 12.2 µM)
- MIC (Cryptococcus neoformans): 25 mg/L (≈ 48.8 µM)
- MIC (Staphylococcus aureus): 25 mg/L (≈ 48.8 µM)
- MIC (Escherichia coli): 12.5 mg/L (≈ 24.4 µM)
- MIC (Aspergillus niger [1]): 12.5 mg/L (≈ 24.4 µM)
- MIC (Salmonella typhi): 6.25 mg/L (≈ 12.2 µM)
- MIC (Klebsiella pneumoniae): 25 mg/L (≈ 48.8 µM)
- MIC (Candida albicans): 6.25 mg/L (≈ 12.2 µM)
- MIC (Rhizopus): 6.25 mg/L (≈ 12.2 µM)
